# Key:
# Format in all cases: in vivo
# [1] = test system: human osteosarcoma cell line (G-292 clone A141B1); experiment: Tumor growth inhibitory activity against human osteosarcoma cell line (G-292 clone A141B1) subcutaneous transplantation models; details: G-292 clone A141B1 s.c. xenograft in NOD SCID mice, lenvatinib mesylate 3 mg/kg p.o. Day 1-7, ifosfamide 250 mg/kg i.p. Day 1, etoposide 8 mg/kg i.p. Day 2-4, control group 362.5
# Experimental: Using 6 NOD SCID mice (NOD.CB17-Prkdc^scid/J, female mice, Charles River Laboratories Japan, Inc.) in each group, antitumor effects were evaluated when lenvatinib alone, a combination of two agents, i.e., ifosfamide and etoposide, or a combination of three agents, i.e., lenvatinib, ifosfamide, and etoposide, was administered. Cells of osteosarcoma cell line G-292 clone A141B1 (JCRB Cell Bank, IFO50107) derived from human were suspended at a concentration of 1×10^8 cells/mL, and 0.1 mL of the suspension was subcutaneously transplanted to the right flank of each mouse.
# The longest diameter and short axis of the tumor were measured with an electronic digital caliper (Digimatic (tread mark) Caliper, Mitutoyo Corporation) 29 days after transplantation. The mice were divided into groups so that the average value of the tumor volume of each group was almost equal (Day 1). The tumor volume was calculated according to the following equation: Tumor volume=longest diameter(mm)×short axis(mm)×short axis(mm)/2
# Lenvatinib mesylate was dissolved in purified water to a concentration of 0.3 mg/mL. lfosfamide (Sigma Aldrich) was dissolved in a physiological saline solution to a concentration of 25 mg/mL. […]
# (§1) The tumor volume of each mouse was measured 8 days (Day 8) after the start of administration.
# [2] = test system: human osteosarcoma cell line (HOS); experiment: Tumor growth inhibitory activity against human osteosarcoma cell line (HOS) subcutaneous transplantation models; details: HOS s.c. xenograft in NOD SCID mice, lenvatinib mesylate 3 mg/kg p.o. Day 1-7, ifosfamide 250 mg/kg i.p. Day 1, etoposide 8 mg/kg i.p. Day 2-4, control group 468.6
# Experimental: Tumor growth inhibitory activity of the combined use of lenvatinib, ifosfamide, and etoposide against human osteosarcoma cell line (HOS) subcutaneous transplantation models
# Using 6 NOD SOD mice (NOD.CB17-Prkdc^scid/J, female mice, Charles River Laboratories Japan, Inc.) in each group, antitumor effects were evaluated when lenvatinib alone, a combination of two agents, i.e., ifosfamide and etoposide, or a combination of three agents, i.e., lenvatinib, ifosfamide, and etoposide, was administered. Cells of osteosarcoma cell line HOS (Human Science Research Resources Bank, IFO50106) derived from human were suspended at a concentration of 1×10^8 cells/mL, and 0.1 mL of the suspension was subcutaneously transplanted to the right of each mouse.
# The longest diameter and short axis of the tumor were measured with an electronic digital caliper (Digimatic (tread mark) Caliper, Mitutoyo Corporation) 18 days after transplantation. The mice were divided into groups so that the average value of the tumor volume of each group was almost equal (Day 1). The tumor volume was calculated according to the following equation: Tumor volume=longest diameter(mm)×short axis(mm)×short axis(mm)/2
# Lenvatinib mesylate was dissolved in purified water to a concentration of 0.3 mg/mL. […]
# as §1
# [3] = test system: human osteosarcoma cell line (143B); experiment: Tumor growth inhibitory activity against human osteosarcoma cell line (143B) subcutaneous transplantation models; details: 143B s.c. xenograft in NOD SCID mice, lenvatinib mesylate 3 mg/kg p.o. Day 1-7, ifosfamide 250 mg/kg i.p. Day 1, etoposide 8 mg/kg i.p. Day 2-4, control group 785.4
# Experimental: Using 6 NOD SCID mice (NOD.CB17-Prkdc^scid/J, female mice, Charles River Laboratories Japan, Inc.) in each group, antitumor effects were evaluated when lenvatinib alone, a combination of two agents, i.e., ifosfamide and etoposide, or a combination of three agents, i.e., lenvatinib, ifosfamide, and etoposide, was administered. Cells of osteosarcoma cell line 143B (ATCC CRL-8303) derived from human were suspended at a concentration of 1×10^7 cells/mL, and 0.1 mL of the suspension was subcutaneously transplanted to the right flank of each mouse.
# The longest diameter and short axis of the tumor were measured with an electronic digital caliper (Digimatic (tread mark) Caliper, Mitutoyo Corporation) 9 days after transplantation. The mice were divided into groups so that the average value of the tumor volume of each group was almost equal (Day 1). The tumor volume was calculated according to the following equation: Tumor volume=longest diameter(mm)×short axis(mm)×short axis(mm)/2
# Lenvatinib mesylate was dissolved in purified water to a concentration of 0.3 mg/mL. Ifosfamide (Sigma Aldrich) was dissolved in a physiological saline solution to a concentration of 25 mg/mL. […]
# as §1
smiles,measurement,setting,value
"COc1cc2nccc(Oc3ccc(NC(=O)NC4CC4)c(Cl)c3)c2cc1C(N)=O [Lenvatinib, 4-(3-chloro-4-(cyclopropylaminocarbonyl)aminophenoxy)-7-methoxy-6-quinolinecarboxamide]",Average tumor volume (Day 8),[1],267.9 mm^3
same,Average tumor volume (Day 8),[2],352.2 mm^3
same,Average tumor volume (Day 8),[3],438.6 mm^3
